The target of one test is T1, CB2 receptor (Homo sapiens, UniProt P34972).
T1 construct: expressed in transfected cells
Nature of the test: Binding assay for CB2 agonists or inverse agonists (SK-N-MC membranes, [3H]-CP-55,940). As to conditions: for inhibition at 0.2 µM: test concentration 0.2 μM (footnote 2). The method, boiled down: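 IC50 came from percent-inhibition data over several compound concentrations, fitted by linear regression. Binding used semi-purified membranes of human CB2-transfected SK-N-MC cells, 90 min at 30 °C, pH 7.5 Tris-HCl with MgCl2, EDTA and BSA, then filtration and scintillation counting.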

In a further test the target is T2, CB1 receptor (Homo sapiens, UniProt P21554).
T2 construct: expressed in transfected cells
Nature of the test: Binding assay for CB1 agonists or inverse agonists (SK-N-MC membranes, [3H]-CP-55,940). As to conditions: for inhibition at 0.2 µM: read-out: CB1 receptor binding percent inhibition, test concentration 0.2 μM (footnote 2); for inhibition at 1 µM: read-out: CB1 receptor binding percent inhibition, test concentration 1 μM (footnote 1). The method, boiled down: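 Radioligand displacement: [3H]-CP-55,940 at […], 90 min at 30° C, pH 7.5 Tris buffer with 0.5 mg/mL fatty-acid-free BSA, using semi-purified membranes of human-CB1-transfected SK-N-MC cells. Bound counts collected on GF/C filters, 10 uM WIN 55,212 for non-specific; IC50 from percent inhibition over several concentrations.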

Where [1] appears, read: read-out: CB2 receptor binding percent inhibition.
[2] abbreviates: Cannabinoid CB1 Receptor Binding IC50, calculated by linear regression from percent inhibition at various test concentrations.

Consider 22 compounds from patent US8378117B2 (priority 2005, dated 2013).

SMILES strings stand for the structures. Like-named read-outs stand apart in the source and are kept apart here.

T2 sequence (P21554 whole entry): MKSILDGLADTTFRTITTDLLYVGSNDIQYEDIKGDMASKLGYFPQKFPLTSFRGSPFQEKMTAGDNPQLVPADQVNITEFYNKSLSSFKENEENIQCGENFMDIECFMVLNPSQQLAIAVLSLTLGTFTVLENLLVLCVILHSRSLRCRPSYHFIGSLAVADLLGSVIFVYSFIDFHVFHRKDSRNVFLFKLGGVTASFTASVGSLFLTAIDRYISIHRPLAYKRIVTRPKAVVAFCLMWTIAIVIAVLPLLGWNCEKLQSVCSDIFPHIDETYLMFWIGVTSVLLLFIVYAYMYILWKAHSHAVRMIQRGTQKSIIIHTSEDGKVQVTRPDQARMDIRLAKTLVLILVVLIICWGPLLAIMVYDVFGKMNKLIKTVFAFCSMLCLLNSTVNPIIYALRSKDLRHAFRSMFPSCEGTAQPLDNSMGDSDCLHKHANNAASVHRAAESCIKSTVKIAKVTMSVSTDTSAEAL
T1 sequence (P34972 whole entry): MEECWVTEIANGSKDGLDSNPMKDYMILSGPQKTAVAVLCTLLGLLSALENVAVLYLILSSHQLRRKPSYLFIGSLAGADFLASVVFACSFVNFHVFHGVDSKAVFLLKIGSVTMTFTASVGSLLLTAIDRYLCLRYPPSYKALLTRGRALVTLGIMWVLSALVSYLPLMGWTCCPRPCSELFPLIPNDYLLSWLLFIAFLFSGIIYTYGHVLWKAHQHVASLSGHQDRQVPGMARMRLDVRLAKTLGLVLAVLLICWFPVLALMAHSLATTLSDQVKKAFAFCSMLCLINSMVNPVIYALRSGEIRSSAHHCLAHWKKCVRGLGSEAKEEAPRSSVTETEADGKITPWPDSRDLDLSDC

For `C[C@@H](NC(=O)c1nn(-c2ccnc3cc(Cl)ccc23)c2c1CCCCC2Cc1cccc(Cl)c1)c1ccccc1` (stereo partly drawn) [Cpd 177, 8-(3-chloro-benzyl)-1-(7-chloro-quinolin-4-yl)-1,4,5,6,7,8-hexahydro-cycloheptapyrazole-3-carboxylic acid [(1R)-1-phenyl-ethyl]-amide], the inhibition at 0.2 µM at CB2 receptor (setting [1]) stood at 27%; on CB1 receptor it was 4%.

`O=C(N[C@@H]1c2ccccc2C[C@@H]1O)c1nn(-c2ccc(F)cc2F)c2c1CCCCC2Cc1ccc(F)cc1` (stereo partly drawn) [Cpd 119, 1-(2,4-difluoro-phenyl)-8-(4-fluoro-benzyl)-1,4,5,6,7,8-hexahydro-cycloheptapyrazole-3-carboxylic acid [(1R,2S)-2-hydroxy-indan-1-yl]-amide]: the “CB2 receptor binding percent inhibition” value on CB2 receptor (test concentration not stated) is reported as 38%. For the same compound, the inhibition at 1 µM on CB1 receptor was 39%.

Broadly, the IC50 is the concentration at which inhibition is half-maximal. Take `CC12CCC(C1)C(C)(C)[C@H]2NC(=O)c1nn(Cc2ccccc2)c2c1CCCCC2c1ccccc1` (stereo partly drawn) [Cpd 47, 1-benzyl-8-phenyl-1,4,5,6,7,8-hexahydro-cycloheptapyrazole-3-carboxylic acid [(2S)-1,3,3-trimethyl-bicyclo[2.2.1]hept-2-yl]-amide]: the IC50 at CB2 receptor (Cannabinoid CB2 Receptor Binding IC50, calculated by linear regression from percent inhibition at various test concentrations) is 30 nM; on CB1 receptor (setting [2]) it was 100 nM. Besides, the “CB2 receptor binding percent inhibition” value on CB2 receptor (test concentration 1 μM (footnote 1)) is listed as 94%. Besides, the inhibition at 1 µM on CB1 receptor is 91%.

Consider `COC(=O)[C@@H](Cc1ccc(F)cc1)NC(=O)c1nn(Cc2ccccc2)c2c1CCCCC2c1ccccc1` (stereo partly drawn) [Cpd 87, (2R)-2-[(1-benzyl-8-phenyl-1,4,5,6,7,8-hexahydro-cycloheptapyrazole-3-carbonyl)-amino]-3-(4-fluoro-phenyl)-propionic acid methyl ester], for which the inhibition at 0.25 µM at CB2 receptor (test concentration 0.25 μM (footnote 8), read-out: CB2 receptor binding percent inhibition) was 0%; at CB1 receptor (read-out: CB1 receptor binding percent inhibition, test concentration 0.25 μM (footnote 8)), 4%.

For the compound `O=C(c1n[nH]c2c1CCCC/C2=C\c1ccc(Cl)cc1)N1CCCCC1` [Cpd 223, (8E)-[8-(4-chloro-benzylidene)-1,4,5,6,7,8-hexahydro-cycloheptapyrazol-3-yl]-piperidin-1-yl-methanone], the values for the inhibition at 0.2 µM on CB2 receptor (setting [1]) and at CB1 receptor were 58% and 40%, respectively.

As to `O=S(=O)(/C=C/c1nn(-c2ccc(F)cc2F)c2c1CCCCC2Cc1ccc(F)cc1)NN1CCOCC1` (stereo not shown) [Cpd 127, (2E)-2-[1-(2,4-difluoro-phenyl)-8-(4-fluoro-benzyl)-1,4,5,6,7,8-hexahydro-cycloheptapyrazol-3-yl]-ethenesulfonic acid morpholin-4-ylamide], the “CB2 receptor binding percent inhibition” value at CB2 receptor (test concentration not stated) came to 0%. Besides, the inhibition at 1 µM on CB1 receptor was found to be 36%.

`O=C(NN1CCOCC1)c1nn(C2CCCCC2)c2c1CCCCC2Cc1ccc(F)cc1` (stereo not shown) [Cpd 89, 1-cyclohexyl-8-(4-fluoro-benzyl)-1,4,5,6,7,8-hexahydro-cycloheptapyrazole-3-carboxylic acid morpholin-4-ylamide]: on CB2 receptor (test concentration not stated), the “CB2 receptor binding percent inhibition” value came out at 0%. Besides, the inhibition at 1 µM on CB1 receptor was found to be 11%.

Turning to `COC(=O)[C@@H](Cc1ccc(F)cc1)NC(=O)c1nn(-c2ccc(Cl)cc2Cl)c2c1CCCCC2Cc1cccc(Cl)c1` (stereo partly drawn) [Cpd 103, (2R)-2-{[8-(3-chloro-benzyl)-1-(2,4-dichloro-phenyl)-1,4,5,6,7,8-hexahydro-cycloheptapyrazole-3-carbonyl]-amino}-3-(4-fluoro-phenyl)-propionic acid methyl ester], on CB2 receptor (test concentration not stated), the “CB2 receptor binding percent inhibition” value stood at 57%. For the same compound, on CB1 receptor (setting [2]), the half-inhibitory concentration (IC50) was 300 nM. Moreover, at CB1 receptor (read-out: CB1 receptor binding percent inhibition, test concentration 0.5 μM (footnote 10)), the inhibition at 0.5 µM was found to be 56%. On CB1 receptor, the inhibition at 1 µM stood at 76%.

For the compound `CC(C)(C)OC(=O)N1CCC(NC(=O)c2nn(C3CCCCC3)c3c2CCCCC3Cc2cccc(F)c2)CC1` (stereo not shown) [Cpd 46, 4-{[1-cyclohexyl-8-(3-fluoro-benzyl)-1,4,5,6,7,8-hexahydro-cycloheptapyrazole-3-carbonyl]-amino}-piperidine-1-carboxylic acid tert-butyl ester], at CB2 receptor (test concentration not stated), the “CB2 receptor binding percent inhibition” value is recorded as 0%. Moreover, the inhibition at 1 µM on CB1 receptor stood at 45%.

As for `O=C(NC12CC3CC(CC(C3)C1)C2)c1nn(C2CCCCC2)c2c1CCCCC2Cc1ccc(Cl)cc1` (stereo not shown) [Cpd 20, 8-(4-chloro-benzyl)-1-cyclohexyl-1,4,5,6,7,8-hexahydro-cycloheptapyrazole-3-carboxylic acid adamantan-1-ylamide], at CB2 receptor (test concentration not stated), the “CB2 receptor binding percent inhibition” value is 28%. The inhibition at 1 µM on CB1 receptor was 4%.

Regarding `O=C(NC1C2CC3CC(C2)CC1C3)c1nn(-c2ccc(Cl)cc2Cl)c2c1CCCCC2Cc1cccc(Cl)c1` (stereo not shown) [Cpd 17, 8-(3-chloro-benzyl)-1-(2,4-dichloro-phenyl)-1,4,5,6,7,8-hexahydro-cycloheptapyrazole-3-carboxylic acid adamantan-2-ylamide], the “CB2 receptor binding percent inhibition” value at CB2 receptor (test concentration not stated) was 11%. The inhibition at 1 µM at CB1 receptor came out at 37%.

Take `C[C@H](NC(=O)c1nn(-c2ccncc2)c2c1CCCC/C2=C\c1ccc(Cl)cc1)c1ccccc1` [Cpd 171, (8E)-8-(4-chloro-benzylidene)-1-pyridin-4-yl-1,4,5,6,7,8-hexahydro-cycloheptapyrazole-3-carboxylic acid [(1S)-1-phenyl-ethyl]-amide]: the values for the inhibition at 0.2 µM at CB2 receptor (setting [1]) and at CB1 receptor were 38% and 2%, respectively.

Consider `COC(=O)[C@@H](Cc1ccc(O)cc1)NC(=O)c1nn(-c2ccc(F)cc2F)c2c1CCCCC2Cc1cccc(F)c1` (stereo partly drawn) [Cpd 95, (2R)-2-{[1-(2,4-difluoro-phenyl)-8-(3-fluoro-benzyl)-1,4,5,6,7,8-hexahydro-cycloheptapyrazole-3-carbonyl]-amino}-3-(4-hydroxy-phenyl)-propionic acid methyl ester], for which the “CB2 receptor binding percent inhibition” value at CB2 receptor (test concentration not stated) worked out at 35%. Further, the inhibition at 1 µM at CB1 receptor turned out to be 36%.

`O=C(NC1C2CC3CC(C2)CC1C3)c1nn(-c2ccc(Cl)cc2Cl)c2c1CCCCC2Cc1ccc(Cl)cc1` (stereo not shown) [Cpd 18, 8-(4-chloro-benzyl)-1-(2,4-dichloro-phenyl)-1,4,5,6,7,8-hexahydro-cycloheptapyrazole-3-carboxylic acid adamantan-2-ylamide]: at CB2 receptor (test concentration not stated), the “CB2 receptor binding percent inhibition” value came out at 23%. Further, the inhibition at 1 µM on CB1 receptor was 3%.

For `O=C(NC1CC1)c1nn(C2CCCCC2)c2c1CCCCC2Cc1ccc(Cl)cc1` (stereo not shown) [Cpd 33, 8-(4-chloro-benzyl)-1-cyclohexyl-1,4,5,6,7,8-hexahydro-cycloheptapyrazole-3-carboxylic acid cyclopropylamide], the “CB2 receptor binding percent inhibition” value at CB2 receptor (test concentration not stated) is recorded as 0%. The inhibition at 1 µM at CB1 receptor was found to be 0%.

As for `C[C@@H](NC(=O)c1nn(-c2nccc(C(F)(F)F)n2)c2c1CCCCC2Cc1cccc(Cl)c1)c1ccccc1` (stereo partly drawn) [Cpd 175, 8-(3-chloro-benzyl)-1-(4-trifluoromethyl-pyrimidin-2-yl)-1,4,5,6,7,8-hexahydro-cycloheptapyrazole-3-carboxylic acid [(1R)-1-phenyl-ethyl]-amide], the inhibition at 0.2 µM at CB2 receptor (setting [1]) came to 36%; at CB1 receptor, 30%.

Regarding `O=C(NC12CC3CC(CC(C3)C1)C2)c1nn(C2CCCCC2)c2c1CCCCC2Cc1ccccc1Cl` (stereo not shown) [Cpd 21, 8-(2-chloro-benzyl)-1-cyclohexyl-1,4,5,6,7,8-hexahydro-cycloheptapyrazole-3-carboxylic acid adamantan-1-ylamide], on CB2 receptor (test concentration not stated), the “CB2 receptor binding percent inhibition” value is 26%. Moreover, at CB1 receptor, the inhibition at 1 µM was determined as 32%.

Take `O=C(NN1CCOCC1)c1nn(-c2ccncc2)c2c1CCCC/C2=C\c1ccc(Cl)cc1` [Cpd 183, (8E)-8-(4-chloro-benzylidene)-1-pyridin-4-yl-1,4,5,6,7,8-hexahydro-cycloheptapyrazole-3-carboxylic acid morpholin-4-ylamide]: the inhibition at 0.2 µM on CB2 receptor (setting [1]) is 14%; on CB1 receptor, 0%.

For `C[C@H](NC(=O)c1nn(C2CCCCC2)c2c1CCCCC2Cc1cccc(Cl)c1)c1ccccc1` (stereo partly drawn) [Cpd 7, 8-(3-chloro-benzyl)-1-cyclohexyl-1,4,5,6,7,8-hexahydro-cycloheptapyrazole-3-carboxylic acid [(1S)-1-phenyl-ethyl]-amide], the “CB2 receptor binding percent inhibition” value on CB2 receptor (test concentration not stated) turned out to be 12%. Moreover, the IC50 at CB1 receptor (calculated by linear regression from percent inhibition at various test concentrations, read-out: Cannabinoid CB1 Receptor Binding IC50) is 1100 nM. At CB1 receptor, the inhibition at 1 µM was determined as 68%.

Turning to `CC12CCC(C1)C(C)(C)[C@H]2NC(=O)c1nn(-c2ccc(Cl)cc2Cl)c2c1CCCCC2Cc1cccc(Cl)c1` (stereo partly drawn) [Cpd 15, 8-(3-chloro-benzyl)-1-(2,4-dichloro-phenyl)-1,4,5,6,7,8-hexahydro-cycloheptapyrazole-3-carboxylic acid [(2S)-1,3,3-trimethyl-bicyclo[2.2.1]hept-2-yl]-amide], the “CB2 receptor binding percent inhibition” value at CB2 receptor (test concentration not stated) came to 54%. For the same compound, at CB1 receptor, the inhibition at 1 µM amounted to 58%.

As for `COC(=O)[C@H](Cc1ccc(F)cc1)NC(=O)c1nn(-c2ccc(Cl)cc2Cl)c2c1CCCCC2Cc1ccc(F)cc1` (stereo partly drawn) [Cpd 72, (2S)-2-{[1-(2,4-dichloro-phenyl)-8-(4-fluoro-benzyl)-1,4,5,6,7,8-hexahydro-cycloheptapyrazole-3-carbonyl]-amino}-3-(4-fluoro-phenyl)-propionic acid methyl ester], on CB2 receptor (test concentration not stated), the “CB2 receptor binding percent inhibition” value is 10%. For the same compound, the “CB1 receptor binding average percent inhibition” value on CB1 receptor (value shown is an average percent inhibition (footnote 5), concentration not given) is reported as “^(5)38%”.

Consider `O=C(NN1CCOCC1)c1n[nH]c2c1CCCC/C2=C\c1ccc(Cl)cc1` [Cpd 145, (8E)-8-(4-chloro-benzylidene)-1,4,5,6,7,8-hexahydro-cycloheptapyrazole-3-carboxylic acid morpholin-4-ylamide], for which the values for the inhibition at 0.2 µM at CB2 receptor (setting [1]) and at CB1 receptor were 68% and 54%, respectively.
